From ChEMBL document CHEMBL6121046, “Discovery of Novel Hydrazide-Based HDAC3 Inhibitors as Epigenetic Immunomodulators for Cancer Immunotherapy” (J Med Chem, 2025)
Calls of active or inactive are those of the source. The rule behind the calls is not given here.

Columns and labels:
Histone deacetylase 1 = Histone deacetylase 1 (Homo sapiens, UniProt Q13547); assay: Inhibition of human recombinant HDAC1 pre-incubated with compounds for 10 mins measured followed by 60 mins of substrate addition
Histone deacetylase 3 = Histone deacetylase 3 (Homo sapiens, UniProt O15379); assay: Inhibition of human recombinant HDAC3 pre-incubated with compounds for 10 mins measured followed by 60 mins of substrate addition
Histone deacetylase 3, sequence (O15379 whole entry): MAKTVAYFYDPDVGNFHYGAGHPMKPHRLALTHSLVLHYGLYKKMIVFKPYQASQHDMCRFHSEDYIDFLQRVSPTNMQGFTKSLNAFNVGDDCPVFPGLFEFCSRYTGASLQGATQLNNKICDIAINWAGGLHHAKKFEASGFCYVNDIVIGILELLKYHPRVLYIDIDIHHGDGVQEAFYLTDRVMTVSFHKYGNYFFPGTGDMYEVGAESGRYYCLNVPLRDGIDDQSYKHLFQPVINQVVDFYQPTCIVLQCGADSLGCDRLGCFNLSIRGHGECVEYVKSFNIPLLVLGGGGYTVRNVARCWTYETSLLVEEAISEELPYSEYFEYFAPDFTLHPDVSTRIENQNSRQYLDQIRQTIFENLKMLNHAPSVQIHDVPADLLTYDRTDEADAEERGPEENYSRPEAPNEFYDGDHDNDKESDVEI

[1] = biological target: T1, Protein deacetylase HDAC6 (Homo sapiens, UniProt Q9UBN7); assay: Inhibition of human recombinant HDAC6 pre-incubated with compounds for 10 mins measured followed by 60 mins of substrate addition
T1 sequence (Q9UBN7 whole entry): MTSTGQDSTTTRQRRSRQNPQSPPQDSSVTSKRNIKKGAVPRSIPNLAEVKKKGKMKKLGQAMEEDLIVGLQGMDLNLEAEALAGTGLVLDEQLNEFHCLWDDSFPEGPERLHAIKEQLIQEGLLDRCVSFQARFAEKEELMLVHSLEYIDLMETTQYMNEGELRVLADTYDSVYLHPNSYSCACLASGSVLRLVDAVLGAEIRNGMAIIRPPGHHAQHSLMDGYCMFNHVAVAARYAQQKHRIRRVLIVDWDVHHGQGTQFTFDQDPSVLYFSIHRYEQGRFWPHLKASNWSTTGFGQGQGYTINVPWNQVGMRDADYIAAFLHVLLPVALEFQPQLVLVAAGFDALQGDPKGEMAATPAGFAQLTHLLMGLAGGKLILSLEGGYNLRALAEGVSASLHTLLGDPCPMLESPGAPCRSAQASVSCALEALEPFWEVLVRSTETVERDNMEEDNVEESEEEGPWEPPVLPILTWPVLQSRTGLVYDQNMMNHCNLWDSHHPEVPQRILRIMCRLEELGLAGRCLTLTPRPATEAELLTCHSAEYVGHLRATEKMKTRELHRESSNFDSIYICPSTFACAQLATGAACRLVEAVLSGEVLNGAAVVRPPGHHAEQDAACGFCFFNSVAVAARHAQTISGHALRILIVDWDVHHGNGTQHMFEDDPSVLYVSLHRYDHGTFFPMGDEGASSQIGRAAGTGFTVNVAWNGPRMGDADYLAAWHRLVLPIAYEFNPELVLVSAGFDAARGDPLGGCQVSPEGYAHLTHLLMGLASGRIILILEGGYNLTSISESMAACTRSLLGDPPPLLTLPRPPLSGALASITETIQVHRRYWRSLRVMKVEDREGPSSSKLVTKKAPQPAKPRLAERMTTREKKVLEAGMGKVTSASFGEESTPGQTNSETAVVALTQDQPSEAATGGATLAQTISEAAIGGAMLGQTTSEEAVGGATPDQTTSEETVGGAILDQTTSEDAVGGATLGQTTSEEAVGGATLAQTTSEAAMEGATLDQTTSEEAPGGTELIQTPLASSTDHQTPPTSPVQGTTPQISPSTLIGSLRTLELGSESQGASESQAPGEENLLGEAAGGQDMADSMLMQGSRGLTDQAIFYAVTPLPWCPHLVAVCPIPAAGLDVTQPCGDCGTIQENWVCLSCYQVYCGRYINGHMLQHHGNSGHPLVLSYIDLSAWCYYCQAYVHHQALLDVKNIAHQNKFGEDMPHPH

Histone deacetylase 8 = biological target: T2, Histone deacetylase 8 (Homo sapiens, UniProt Q9BY41); assay: Inhibition of human recombinant HDAC8 pre-incubated with compounds for 10 mins measured followed by 60 mins of substrate addition
T2 sequence (Q9BY41 whole entry): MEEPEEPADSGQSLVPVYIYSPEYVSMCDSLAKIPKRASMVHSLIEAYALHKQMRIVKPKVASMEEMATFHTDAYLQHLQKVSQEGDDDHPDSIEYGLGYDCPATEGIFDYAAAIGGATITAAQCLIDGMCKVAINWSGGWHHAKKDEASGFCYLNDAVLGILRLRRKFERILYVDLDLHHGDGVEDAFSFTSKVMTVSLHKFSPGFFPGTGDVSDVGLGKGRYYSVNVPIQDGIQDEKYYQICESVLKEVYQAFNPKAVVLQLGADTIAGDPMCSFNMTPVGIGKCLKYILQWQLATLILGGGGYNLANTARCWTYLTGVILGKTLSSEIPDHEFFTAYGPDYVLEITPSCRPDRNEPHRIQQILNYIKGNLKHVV

HeLa = assay: Antiproliferative activity against human HeLa cells measured after 48 hrs incubation by MTT assay relative to control; format: functional, cell-based
MCF7 = assay: Antiproliferative activity against human MCF7 cells measured after 48 hrs incubation by MTT assay relative to control; format: functional, cell-based; settings: MCF7, 48 h
[2] = Antiproliferative activity against […] cells measured after 48 hrs incubation by MTT assay relative to control; format: functional, cell-based; settings: Mus musculus, Lung cancer cell line
HCT-116 = assay: Antiproliferative activity against human HCT-116 cells measured after 48 hrs incubation by MTT assay relative to control; format: functional, cell-based; settings: HCT-116, 48 h
MC-38 [3] = assay: Induction of apoptosis in mouse MC38 cells assessed as viable cells at 1 uM measured after 48 hrs by FITC/PI staining based flow cytometry (reference value: 82.07%); format: functional; settings: read-out: Activity
MC-38 [4] = assay: Induction of apoptosis in mouse MC38 cells assessed as necrotic cells at 2 uM measured after 48 hrs by FITC/PI staining based flow cytometry (reference value: 0.56%); format: functional
MC-38 [5] = assay: Induction of apoptosis in mouse MC38 cells assessed as viable cells at 4 uM measured after 48 hrs by FITC/PI staining based flow cytometry (reference value: 82.07%); format: functional; settings: read-out: Activity
MC-38 [6] = assay: Induction of apoptosis in mouse MC38 cells assessed as early apoptotic cells at 8 uM measured after 48 hrs by FITC/PI staining based flow cytometry (Rvb =12.27%); format: functional
MC-38 [7] = assay: Induction of apoptosis in mouse MC38 cells assessed as late apoptotic cells at 8 uM measured after 48 hrs by FITC/PI staining based flow cytometry (reference value: 5.07%); format: functional
MC-38 [8] = assay: Induction of apoptosis in mouse MC38 cells assessed as necrotic cells at 8 uM measured after 48 hrs by FITC/PI staining based flow cytometry (reference value: 0.56%); format: functional
MC-38 [9] = assay: Cell cycle arrest in mouse MC38 cells assessed as increase in accumulation of cells at G2/M phase measured after 48 hrs by flow cytometry; format: functional, cell-based; settings: dose 1-8 µM
MC-38 [10] = assay: Effect on acetylated alpha-tubulin in mouse MC38 cells at 0.1 to 2 uM measured after 24 hrs incubation by Western blot analysis; format: functional, cell-based; settings: dose 0.1-2 µM
MC-38 [11] = assay: Effect on acetylated SMC3 in mouse MC38 cells at 0.1 to 2 uM measured after 24 hrs incubation by Western blot analysis; format: functional, cell-based; settings: dose 0.1-2 µM
MC-38 [12] = assay: Induction of PD-L1 expression in mouse MC38 cells measured after 24 hrs incubation by Western blot analysis; format: functional, cell-based; settings: dose 1-4 µM
B16-F10 (Mus musculus) = assay: Antiproliferative activity against mouse B16-F10 cells measured after 48 hrs incubation by MTT assay relative to control; settings: B16-F10, 48 h

Histone deacetylase 1, sequence (Q13547 whole entry): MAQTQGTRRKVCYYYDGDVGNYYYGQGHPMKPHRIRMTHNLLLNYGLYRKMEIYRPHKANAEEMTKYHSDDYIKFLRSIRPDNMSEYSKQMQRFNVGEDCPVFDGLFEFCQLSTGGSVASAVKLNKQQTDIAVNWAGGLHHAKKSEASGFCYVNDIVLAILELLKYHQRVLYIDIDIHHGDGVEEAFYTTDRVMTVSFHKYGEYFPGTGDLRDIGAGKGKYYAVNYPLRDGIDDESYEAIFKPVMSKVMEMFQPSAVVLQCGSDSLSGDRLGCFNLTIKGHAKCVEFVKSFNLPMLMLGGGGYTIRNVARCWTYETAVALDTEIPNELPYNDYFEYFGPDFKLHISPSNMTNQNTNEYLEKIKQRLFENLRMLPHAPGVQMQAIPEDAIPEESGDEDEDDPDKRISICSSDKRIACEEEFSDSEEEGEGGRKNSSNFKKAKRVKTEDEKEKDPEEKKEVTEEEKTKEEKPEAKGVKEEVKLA

Structure (SMILES)	IC50 (Histone deacetylase 1) [nM]	IC50 (Histone deacetylase 3) [nM]	IC50 [1] [nM]	IC50 (Histone deacetylase 8) [nM]	IC50 (HeLa) [nM]	IC50 (MCF7) [nM]	IC50 [2] [nM]	IC50 (HCT-116) [nM]	viability at 1 µM (MC-38 [3]) [%]	Activity (MC-38 [4]) [%]	viability at 4 µM (MC-38 [5]) [%]	Activity (MC-38 [6]) [%]	Activity (MC-38 [7]) [%]	Activity (MC-38 [8]) [%]	Activity (MC-38 [9])	Activity (MC-38 [10])	Activity (MC-38 [11])	Activity (MC-38 [12])	IC50 (B16-F10 (Mus musculus)) [nM]
CCCNNC(=O)c1ccc(CNC(=O)c2cnc(-c3cccc4ccccc34)[nH]2)cc1	2030	61	9680	> 10000	1310	2160	930	230	50.7	9.01	28.3	22.9	46.63	8.29	Active	inactive	inactive	Dose-dependent-effect	2470
CCCNNC(=O)c1ccc(CNC(=O)c2cnc(-c3ccc4occc4c3)[nH]2)cc1	3980	53	> 10000	> 10000	2240	1900	1030	100	49.3	2.15	18.2	19.83	60.9	2.85	Active	inactive	inactive	Dose-dependent-effect	2690
